Measured values reported in patent US8853263B2, “Co-therapy for the treatment of epilepsy and related disorders” (Janssen Pharmaceutica NV, priority 2006, dated 2014).

NS(=O)(=O)NC[C@H]1COc2cc(Cl)c(Cl)cc2O1 [Compound #29, (2S)-(−)-N-(6,7Dichloro-2,3-dihydro-benzo[1,4]dioxin-2-ylmethyl)-sulfamide] showed a melting point of 119 to 121 °C.
With NS(=O)(=O)NCCC1COc2ccccc2O1 (stereo not shown) [Compound #16, 2-(2,3-Dihydro-benzo[1,4]dioxin-2-yl)-ethylsulfamide] the melting point was 101 to 103 °C.
For CN(C)S(=O)(=O)NCC1COc2ccccc2O1 (racemic) [Compound #6, N-(2,3-Dihydro-benzo[1,4]dioxin-2-ylmethyl)-N′,N′dimethylsulfamide], the melting point was 76 to 78 °C.
Work on NS(=O)(=O)NCC1CCc2ccccc2O1 (stereo not shown) [Compound #10, Chroman-2-ylmethylsulfamide] yielded a melting point of 100 to 101 °C.
